From patent US11116760B2 (Gilead Sciences, Inc., priority 2018, dated 2021)

Each compound was assayed against α4β7 integrin (Homo sapiens (Human), UniProt P13612+P26010) (assay: α4β7 Integrin Cell Capture Assay). Conditions: Table 2; capture of α4β7 expressing RPM18866 cells on MadCAM-1 extracellular domain-coated plate.
Format: cell-based

Sequence of α4β7 integrin (P13612 34-1032): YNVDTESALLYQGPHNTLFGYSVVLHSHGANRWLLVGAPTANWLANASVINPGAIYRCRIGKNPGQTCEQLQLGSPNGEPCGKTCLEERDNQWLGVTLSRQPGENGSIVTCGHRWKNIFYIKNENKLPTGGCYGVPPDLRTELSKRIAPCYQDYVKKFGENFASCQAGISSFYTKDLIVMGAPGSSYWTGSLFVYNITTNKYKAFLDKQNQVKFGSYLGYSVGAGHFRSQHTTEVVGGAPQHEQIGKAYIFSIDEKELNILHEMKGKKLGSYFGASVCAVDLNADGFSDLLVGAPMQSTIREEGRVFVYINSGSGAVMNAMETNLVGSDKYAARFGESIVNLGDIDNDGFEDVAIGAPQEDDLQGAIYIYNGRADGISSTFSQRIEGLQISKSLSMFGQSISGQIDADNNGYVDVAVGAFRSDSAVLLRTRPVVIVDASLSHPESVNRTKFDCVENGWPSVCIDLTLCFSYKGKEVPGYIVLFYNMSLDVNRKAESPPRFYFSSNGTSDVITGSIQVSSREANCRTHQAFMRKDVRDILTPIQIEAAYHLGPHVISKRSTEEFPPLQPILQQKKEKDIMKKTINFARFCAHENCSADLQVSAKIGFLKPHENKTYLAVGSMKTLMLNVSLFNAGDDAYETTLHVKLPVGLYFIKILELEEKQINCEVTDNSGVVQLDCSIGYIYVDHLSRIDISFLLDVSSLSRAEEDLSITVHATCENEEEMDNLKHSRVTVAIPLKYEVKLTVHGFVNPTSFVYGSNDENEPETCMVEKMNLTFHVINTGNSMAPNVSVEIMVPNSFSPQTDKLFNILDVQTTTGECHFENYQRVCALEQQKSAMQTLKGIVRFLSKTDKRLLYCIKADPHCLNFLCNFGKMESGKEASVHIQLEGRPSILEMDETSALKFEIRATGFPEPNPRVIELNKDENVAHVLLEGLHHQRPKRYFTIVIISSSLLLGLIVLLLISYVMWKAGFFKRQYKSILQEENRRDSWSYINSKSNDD
Sequence of α4β7 integrin (P26010 20-798): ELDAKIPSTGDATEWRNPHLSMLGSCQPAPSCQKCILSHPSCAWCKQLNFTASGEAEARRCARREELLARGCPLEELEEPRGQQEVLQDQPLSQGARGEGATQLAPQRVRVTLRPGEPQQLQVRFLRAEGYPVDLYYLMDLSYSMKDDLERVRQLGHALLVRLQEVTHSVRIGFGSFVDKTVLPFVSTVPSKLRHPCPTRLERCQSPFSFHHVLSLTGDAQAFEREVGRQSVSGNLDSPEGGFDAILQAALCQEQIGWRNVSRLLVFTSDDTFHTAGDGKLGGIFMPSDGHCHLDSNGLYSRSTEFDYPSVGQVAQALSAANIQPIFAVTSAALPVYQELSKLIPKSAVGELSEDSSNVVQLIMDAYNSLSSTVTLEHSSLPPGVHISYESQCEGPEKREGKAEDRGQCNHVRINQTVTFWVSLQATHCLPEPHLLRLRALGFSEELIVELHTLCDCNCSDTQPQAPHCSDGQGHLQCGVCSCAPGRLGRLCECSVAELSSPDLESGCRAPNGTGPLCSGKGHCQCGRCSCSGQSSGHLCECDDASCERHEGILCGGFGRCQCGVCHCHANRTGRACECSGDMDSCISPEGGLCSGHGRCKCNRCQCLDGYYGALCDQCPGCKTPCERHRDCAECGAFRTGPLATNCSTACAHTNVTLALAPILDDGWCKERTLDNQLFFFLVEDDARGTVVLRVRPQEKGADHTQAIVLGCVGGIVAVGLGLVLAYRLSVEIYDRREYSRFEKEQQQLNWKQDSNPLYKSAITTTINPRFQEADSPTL

SMILES	EC50 [nM]
O=C(N[C@@H](Cc1ccc(-c2c(Cl)cc(F)cc2OC(F)F)c2ncccc12)C(=O)O)c1c(F)cccc1F [Example 149]	50.3
N#Cc1ccc(-c2ccc(C[C@H](NC(=O)c3c(F)cc(C4=CCOCC4)cc3F)C(=O)O)c3cccnc23)c(Cl)c1 [Example 150]	43.6
Cc1nc(-c2ccc(C[C@H](NC(=O)c3c(F)cc(N4CCOC[C@@H]4C(F)(F)F)cc3F)C(=O)O)c3cccnc23)c(=O)n(C)c1C [Example 151]	0.2
Cn1c(=O)c(-c2ccc(C[C@H](NC(=O)c3c(F)cc(NS(=O)(=O)C(F)F)cc3F)C(=O)O)c3cccnc23)cc2ccccc21 [Example 153]	0.2
C[C@@H](NC(=O)c1cc(F)c(C(=O)N[C@@H](Cc2ccc(-c3ccc(C#N)cc3Cl)c3ncccc23)C(=O)O)c(F)c1)C(F)(F)F [Example 154]	44.6
COc1c(-c2ccc(C[C@H](NC(=O)c3c(F)cc(N[C@H](C)C(F)(F)F)cc3F)C(=O)O)c3cccnc23)c(=O)n(C)c2ccccc12 [Example 156]	0.3
O=C(N[C@@H](Cc1ccc(Oc2nccc3ccccc23)c2ncccc12)C(=O)O)c1c(Cl)cccc1Cl [Example 157]	44
Cn1c(C2CC2)cc(C(F)(F)F)c(-c2ccc(C[C@H](NC(=O)c3c(F)cc(N4CCOC[C@@H]4C(F)(F)F)cc3F)C(=O)O)c3cccnc23)c1=O [Example 158]	0.3
Cc1cc(C(F)(F)F)c(-c2ccc(C[C@H](NC(=O)c3c(F)cc(N4CCOC[C@@H]4C(F)(F)F)cc3F)C(=O)O)c3cc(F)cnc23)c(=O)n1C [Example 159]	0.3
Cc1cc(N2CCOC[C@@H]2C(F)(F)F)cc(Cl)c1C(=O)N[C@@H](Cc1ccc(-c2c(C(F)(F)F)cc(C)n(C)c2=O)c2ncccc12)C(=O)O [Example 160]	0.3
Cc1c(Cl)cc(-c2ccc(C[C@H](NC(=O)c3c(F)cc(N4CCOC[C@@H]4C(F)(F)F)cc3F)C(=O)O)c3cccnc23)c(=O)n1C [Example 161]	0.3
C[C@H](NC(=O)c1cc(F)c(C(=O)N[C@@H](Cc2ccc(-c3ccc(C#N)cc3Cl)c3ncccc23)C(=O)O)c(F)c1)c1ccccc1 [Example 162]	53.5
CC[C@@H](Nc1cc(F)c(C(=O)N[C@@H](Cc2ccc(-c3c(C(F)(F)F)cc(C4CC4)n(C)c3=O)c3ncccc23)C(=O)O)c(F)c1)C(F)(F)F [Example 163]	0.4
N#Cc1ccc(-c2ccc(C[C@H](NC(=O)c3c(F)cc(NC4(C(F)(F)F)CCC4)cc3F)C(=O)O)c3cccnc23)c(Cl)c1 [Example 164]	88.6
Cc1c(Cl)cn(C)c(=O)c1-c1ccc(C[C@H](NC(=O)c2c(F)cc(N3CCOC[C@@H]3C(F)(F)F)cc2F)C(=O)O)c2cccnc12 [Example 165]	0.4
COc1cc(C)n(C)c(=O)c1-c1ccc(C[C@H](NC(=O)c2c(F)cc(N[C@H](C3CC3)C(F)(F)F)cc2F)C(=O)O)c2cccnc12 [Example 166]	0.4
CC[C@@H](Nc1cc(F)c(C(=O)N[C@@H](Cc2ccc(-c3c(C(F)F)cc(C)n(C)c3=O)c3ncccc23)C(=O)O)c(F)c1)C(F)(F)F [Example 167]	0.4
N#Cc1ccc(-c2ccc(C[C@H](NC(=O)c3c(F)cc(N[C@@H]4CCCCC4(F)F)cc3F)C(=O)O)c3cccnc23)c(Cl)c1 [Example 170]	93.7
Cc1cc(C(F)(F)F)c(-c2ccc(C[C@H](NC(=O)c3c(F)cc(N4CC(C)OCC4C(F)(F)F)cc3F)C(=O)O)c3cccnc23)c(=O)n1C (some centres unmarked) [Example 171]	0.5

SMILES	EC50 [nM]
CC[C@@H](N(c1cc(F)c(C(=O)N[C@@H](Cc2ccc(-c3c(C(F)(F)F)cc(C)n(C)c3=O)c3ncccc23)C(=O)O)c(F)c1)C1CC1)C(F)(F)F [Example 172]	0.5
Cc1[nH]c2cc(Cl)c(C(=O)N[C@@H](Cc3ccc(-c4ccc(C#N)cc4Cl)c4ncccc34)C(=O)O)c(Cl)c2c1C [Example 174]	97.8
N#Cc1ccc(-c2ccc(C[C@H](NC(=O)c3c(F)cc(O[C@H](c4ccccc4)C(F)(F)F)cc3F)C(=O)O)c3cccnc23)c(Cl)c1 [Example 175]	97.1
CCc1nc(-c2ccc(C[C@H](NC(=O)c3c(F)cc(N[C@H](CC)C(F)(F)F)cc3F)C(=O)O)c3cccnc23)c(=O)n(C)c1CC [Example 176]	0.9
O=C(N[C@@H](Cc1ccc(-c2cc(F)c(F)cc2OC2CCC2)c2ncccc12)C(=O)O)c1c(F)cccc1F [Example 177]	28
COCCNC(=O)c1cc(F)c(C(=O)N[C@@H](Cc2ccc(-c3ccc(C#N)cc3Cl)c3ncccc23)C(=O)O)c(F)c1 [Example 178]	37.1
N#Cc1ccc(-c2ccc(C[C@H](NC(=O)c3c(Cl)cc4nc(C5CC5)[nH]c4c3Cl)C(=O)O)c3cccnc23)c(Cl)c1 [Example 179]	37.7
Cc1cc(C(F)(F)F)c(-c2ccc(C[C@H](NC(=O)c3c(F)cc(N4CCOC[C@@H]4C)cc3F)C(=O)O)c3cccnc23)c(=O)n1C [Example 180]	0.9
Cc1cc(C(F)(F)F)c(-c2ccc(C[C@H](NC(=O)c3c(F)cc(N4CCO[C@@H](C)C4)cc3F)C(=O)O)c3cccnc23)c(=O)n1C [Example 181]	0.7
CC[C@@H](Nc1cc(F)c(C(=O)N[C@@H](Cc2ccc(-c3cc4ccccc4n(C)c3=O)c3ncccc23)C(=O)O)c(F)c1)C(F)(F)F [Example 182]	0.9
CC[C@@H](Nc1cc(F)c(C(=O)N[C@@H](Cc2ccc(-c3c(C(F)(F)F)cc(C)n(C)c3=O)c3nc(C)ccc23)C(=O)O)c(F)c1)C(F)(F)F [Example 183]	0.9
CC[C@@H](Nc1cc(F)c(C(=O)N[C@@H](Cc2ccc(-c3c(OC)ccn(C)c3=O)c3ncccc23)C(=O)O)c(F)c1)C(F)(F)F [Example 186]	1
CC[C@@H](Nc1cc(F)c(C(=O)N[C@@H](Cc2ccc(-c3c(C)c(C(F)(F)F)cn(C)c3=O)c3ncccc23)C(=O)O)c(F)c1)C(F)(F)F [Example 188]	1.2
O=C(N[C@@H](Cc1ccc(-c2nccc(C(F)(F)F)n2)c2ncccc12)C(=O)O)c1c(F)cc(N2CCOC[C@@H]2C(F)(F)F)cc1F [Example 189]	15.1
COc1cc(C)n(C)c(=O)c1-c1ccc(C[C@H](NC(=O)c2c(F)cc(N3CCCC[C@@H]3C(F)(F)F)cc2F)C(=O)O)c2cccnc12 [Example 190]	1.2
Cc1cc(C(F)(F)F)c(-c2ccc(C[C@H](NC(=O)c3c(F)cc(N4C[C@@H](C)OC[C@@H]4C)cc3F)C(=O)O)c3cccnc23)c(=O)n1C [Example 191]	1.3
Cn1c(=O)c(-c2ccc(C[C@H](NC(=O)c3c(F)cc(N4CCOC[C@H]4C(F)(F)F)cc3F)C(=O)O)c3cccnc23)cc2cnccc21 [Example 192]	1.4
CCOc1ccnc(-c2ccc(C[C@H](NC(=O)c3c(F)cc(N4CCOC[C@@H]4C(F)(F)F)cc3F)C(=O)O)c3cccnc23)c1C(F)(F)F [Example 193]	1.4
Nc1ccc(C(F)(F)F)c(-c2ccc(C[C@H](NC(=O)c3c(F)cc(N4CCOC[C@@H]4C(F)(F)F)cc3F)C(=O)O)c3cccnc23)n1 [Example 194]	1.4

SMILES	EC50 [nM]
C[C@H](NC(=O)c1cc(F)c(C(=O)N[C@@H](Cc2ccc(-c3ccc(C#N)cc3Cl)c3ncccc23)C(=O)O)c(F)c1)C(F)(F)F [Example 195]	62.3
O=C(N[C@@H](Cc1ccc(-c2cc3ccccc3oc2=O)c2ncccc12)C(=O)O)c1c(Cl)cccc1Cl [Example 196]	63.1
N#Cc1ccc(-c2ccc(C[C@H](NC(=O)c3c(F)cc(C(=O)NC4CC4)cc3F)C(=O)O)c3cccnc23)c(Cl)c1 [Example 197]	63.4
Cc1cc(C(F)(F)F)c(-c2ccc(C[C@H](NC(=O)c3c(F)cc(N4C[C@H](C)OC[C@@H]4C(F)(F)F)cc3F)C(=O)O)c3cccnc23)c(=O)n1C [Example 198]	1.4
CC[C@@H](Nc1cc(F)c(C(=O)N[C@@H](Cc2ccc(-c3c(C)c(F)cn(C)c3=O)c3ncccc23)C(=O)O)c(F)c1)C(F)(F)F [Example 199]	1.5
CC[C@@H](Nc1cc(F)c(C(=O)N[C@@H](Cc2ccc(-c3c(C)c(Cl)cn(C)c3=O)c3ncccc23)C(=O)O)c(F)c1)C(F)(F)F [Example 200]	1.5
CCOCc1cc(OC)c(-c2ccc(C[C@H](NC(=O)c3c(F)cc(N[C@H](CC)C(F)(F)F)cc3F)C(=O)O)c3cccnc23)c(OC)c1 [Example 201]	1.5
Cc1cc(C)n(C)c(=O)c1-c1ccc(C[C@H](NC(=O)c2c(F)cc(N3CCCC[C@@H]3C(F)(F)F)cc2F)C(=O)O)c2cccnc12 [Example 202]	1.5
Cc1c(-c2ccc(C[C@H](NC(=O)c3c(F)cc(CS(=O)(=O)c4ccccc4)cc3F)C(=O)O)c3cccnc23)c(=O)n(C)c(=O)n1C [Example 203]	1.6
Cc1cc(C(F)(F)F)c(-c2ccc(C[C@H](NC(=O)c3c(F)cc(N4C[C@H](C)OC[C@@H]4C)cc3F)C(=O)O)c3cccnc23)c(=O)n1C [Example 204]	1.7
COc1c(-c2ccc(C[C@H](NC(=O)c3c(F)cc(N4CCOC[C@H]4C(F)(F)F)cc3F)C(=O)O)c3cccnc23)c(=O)n(C)c2ccccc12 [Example 205]	1.7
Cc1nc(-c2ccc(C[C@H](NC(=O)c3c(F)cc(N4CCOC[C@@H]4C(F)(F)F)cc3F)C(=O)O)c3cccnc23)nc2cc(F)ccc12 [Example 206]	1.7
COc1cnn(C)c(=O)c1-c1ccc(C[C@H](NC(=O)c2c(F)cc(N[C@H](C)C(F)(F)F)cc2F)C(=O)O)c2cccnc12 [Example 207]	1.7
CC[C@@H](Nc1cc(F)c(C(=O)N[C@@H](Cc2ccc(-c3nc(N)ccc3C(F)(F)F)c3ncccc23)C(=O)O)c(F)c1)C(F)(F)F [Example 208]	1.8
CC[C@@H](Nc1cc(F)c(C(=O)N[C@@H](Cc2ccc(-c3nc(C)cn(C)c3=O)c3ncccc23)C(=O)O)c(F)c1)C(F)(F)F [Example 209]	1.9
CC[C@@H](Nc1cc(F)c(C(=O)N[C@@H](Cc2ccc(-c3cc(C(F)(F)F)cn(C)c3=O)c3ncccc23)C(=O)O)c(F)c1)C(F)(F)F [Example 210]	1.9
C[C@@H](Nc1cc(F)c(C(=O)N[C@@H](Cc2ccc(-c3cn(C)c(=O)n(C)c3=O)c3ncccc23)C(=O)O)c(F)c1)C(F)(F)F [Example 211]	1.9
Cc1ccnc(-c2ccc(C[C@H](NC(=O)c3c(F)cc(N4CCOC[C@@H]4C(F)(F)F)cc3F)C(=O)O)c3cccnc23)c1N(C)C [Example 212]	1.9
